Results reported in patent US9833497B2, “Human originated EGF domain proteins and use of the same” (CHENGDU SOURCEBIO LIMITED-LIABILITY COMPANY, priority 2013, dated 2017).

Experiments:
Assay type in all cases: cell-based
Aeromonas hydrophila = test: MIC against Gram-negative bacteria: Aeromonas hydrophila; settings: 5×10^5 CFU/mL
How it was run: (§1)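 Inocula prepared by growing LB cultures at 37° C to 0.5 McFarland, centrifuging at 4000×g, and resuspending in fresh medium. Final density 5×10^5 CFU/mL per well with two-fold dilutions of purified EGF domain protein; shaking incubation at 37° C.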

Proteus mirabilis = test: MIC against Gram-negative bacteria: Proteus mirabilis; settings: 5×10^5 CFU/mL
How it was run: as §1

Serratia marcescens = test: MIC against Gram-negative bacteria: Serratia marcescens; settings: 5×10^5 CFU/mL
How it was run: as §1

Moraxella catarrhalis = test: MIC against Gram-negative bacteria: Moraxella catarrhalis; settings: 5×10^5 CFU/mL
How it was run: as §1

Citrobacter diversus = test: MIC against Gram-negative bacteria: Citrobacter diversus; settings: 5×10^5 CFU/mL
How it was run: as §1

Proteus vulgaris = test: MIC against Gram-negative bacteria: Proteus vulgaris; settings: 5×10^5 CFU/mL
How it was run: as §1

E. coli DH5α = test: Antibacterial activity: MIC and growth curve against E. coli DH5α in 96-well plate; settings: minimal inhibitory concentration against E. coli DH5α; 96-well plate, 5×10^5 CFU/mL, 37° C., judged after 8 h
How it was run: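 Log-phase DH5α (OD600 about 0.5, 37° C, 185 rpm in LB) was pelleted, resuspended in fresh LB and seeded at 5×10^5 CFU/mL with recombinant protein at 50, 25 and 12.5 μg/mL (two-fold series), in triplicate. Plates were shaken at 175 rpm, 37° C, and OD600 was read every 30 min. MIC was the lowest concentration with no growth.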

Enterobacter cloacae = test: MIC against Gram-negative bacteria: Enterobacter cloacae; settings: 5×10^5 CFU/mL
How it was run: as §1

Klebsiella pneumonia = test: MIC against Gram-negative bacteria: Klebsiella pneumonia; settings: 5×10^5 CFU/mL
How it was run: as §1

E. coli BL21 = test: MIC against Gram-negative bacteria: E. coli BL21; settings: 5×10^5 CFU/mL
How it was run: as §1

Pseudomonas aeruginosa = test: MIC against Gram-negative bacteria: Pseudomonas aeruginosa; settings: 5×10^5 CFU/mL
How it was run: as §1

[1] = 10 h cultivation at 37° C., two-fold serial dilution

PRT1153 (TVSTCDPEHDPPHHCSRGATCISLPHGYTCFCPLGTTGIYCE; listed as Homo sapiens)
12.5 µg/mL: MIC S. marcescens (Serratia marcescens; [1]) | MIC M. catarrhalis (Moraxella catarrhalis; [1]) | MIC (E. coli DH5α) | MIC E. cloacae (Enterobacter cloacae; [1]) | MIC P. aeruginosa (Pseudomonas aeruginosa; [1])
25 µg/mL: MIC P. mirabilis (Proteus mirabilis; [1]) | MIC C. diversus (Citrobacter diversus; [1])
50 µg/mL: MIC A. hydrophila (Aeromonas hydrophila; [1]) | MIC P. vulgaris (Proteus vulgaris; [1]) | MIC K. pneumonia (Klebsiella pneumonia; [1]) | MIC E. coli BL21 (E. coli BL21; [1])

PRT211 (DIDECSYSSYLCQYRCVNEPGRFSCHCPQGYQ; listed as Homo sapiens)
50 µg/mL: MIC (μg/mL) A. hydrophila (Aeromonas hydrophila; A. hydrophila, 10 h cultivation at 37° C.) | MIC (μg/mL) P. vulgaris (Proteus vulgaris; P. vulgaris, 10 h cultivation at 37° C.)
25 µg/mL: MIC (μg/mL) P. mirabilis (Proteus mirabilis; P. mirabilis, 10 h cultivation at 37° C.) | MIC (μg/mL) S. marcescens (Serratia marcescens; S. marcescens, 10 h cultivation at 37° C.) | MIC (μg/mL) C. diversus (Citrobacter diversus; C. diversus, 10 h cultivation at 37° C.) | MIC (E. coli DH5α) | MIC (μg/mL) E. cloacae (Enterobacter cloacae; E. cloacae, 10 h cultivation at 37° C.) | MIC (μg/mL) P. aeruginosa (Pseudomonas aeruginosa; P. aeruginosa, 10 h cultivation at 37° C.)
12.5 µg/mL: MIC (μg/mL) M. catarrhalis (Moraxella catarrhalis; M. catarrhalis, 10 h cultivation at 37° C.) | MIC (μg/mL) K. pneumonia (Klebsiella pneumonia; K. pneumonia, 10 h cultivation at 37° C.) | MIC (μg/mL) E. coli BL21 (E. coli BL21; E. coli BL21, 10 h cultivation at 37° C.)

PRT707 (GKTVCEDFCQNGGTCIVTAGNQPYCHCQPEYTGDRCQ; listed as Homo sapiens)
12.5 µg/mL: MIC P. mirabilis (Proteus mirabilis; 96-well plate, 37° C., 10 h) | MIC S. marcescens (Serratia marcescens; 96-well plate, 37° C., 10 h) | MIC M. catarrhalis (Moraxella catarrhalis; 96-well plate, 37° C., 10 h) | MIC C. diversus (Citrobacter diversus; 96-well plate, 37° C., 10 h) | MIC E. cloacae (Enterobacter cloacae; 96-well plate, 37° C., 10 h) | MIC K. pneumonia (Klebsiella pneumonia; 96-well plate, 37° C., 10 h)
25 µg/mL: MIC A. hydrophila (Aeromonas hydrophila; 96-well plate, 37° C., 10 h) | MIC P. vulgaris (Proteus vulgaris; 96-well plate, 37° C., 10 h) | MIC E. coli BL21 (E. coli BL21; 96-well plate, 37° C., 10 h)
50 µg/mL: MIC (E. coli DH5α) | MIC P. aeruginosa (Pseudomonas aeruginosa; 96-well plate, 37° C., 10 h)

PRT523 (CSCGRRLCEEMTGQCRCPPRTVRPQCEVCETHSFSFHPMAGCEG; listed as Homo sapiens)
50 µg/mL: MIC against P. mirabilis (Proteus mirabilis; 96-well plate, 37° C., 10 h) | MIC against C. diversus (Citrobacter diversus; 96-well plate, 37° C., 10 h) | MIC against P. aeruginosa (Pseudomonas aeruginosa; 96-well plate, 37° C., 10 h)
12.5 µg/mL: MIC against S. marcescens (Serratia marcescens; 96-well plate, 37° C., 10 h) | MIC against M. catarrhalis (Moraxella catarrhalis; 96-well plate, 37° C., 10 h) | MIC against P. vulgaris (Proteus vulgaris; 96-well plate, 37° C., 10 h) | MIC (E. coli DH5α) | MIC against E. cloacae (Enterobacter cloacae; 96-well plate, 37° C., 10 h)
25 µg/mL: MIC against A. hydrophila (Aeromonas hydrophila; 96-well plate, 37° C., 10 h) | MIC against K. pneumonia (Klebsiella pneumonia; 96-well plate, 37° C., 10 h) | MIC against E. coli BL21 (E. coli BL21; 96-well plate, 37° C., 10 h)

PRT720 (INECHDPSISGCDHNCTDTLTSFYCSCRPGYKLMSDKRTCV; listed as Homo sapiens)
12.5 µg/mL: MIC A. hydrophila (Aeromonas hydrophila; 96-well plate, 37° C., 10 h) | MIC P. vulgaris (Proteus vulgaris; 96-well plate, 37° C., 10 h) | MIC K. pneumonia (Klebsiella pneumonia; 96-well plate, 37° C., 10 h) | MIC P. aeruginosa (Pseudomonas aeruginosa; 96-well plate, 37° C., 10 h)
25 µg/mL: MIC P. mirabilis (Proteus mirabilis; 96-well plate, 37° C., 10 h) | MIC C. diversus (Citrobacter diversus; 96-well plate, 37° C., 10 h) | MIC E. coli BL21 (E. coli BL21; 96-well plate, 37° C., 10 h)
50 µg/mL: MIC S. marcescens (Serratia marcescens; 96-well plate, 37° C., 10 h) | MIC M. catarrhalis (Moraxella catarrhalis; 96-well plate, 37° C., 10 h) | MIC (E. coli DH5α) | MIC E. cloacae (Enterobacter cloacae; 96-well plate, 37° C., 10 h)

PRT1286 (PKSPCEGTECQNGANCVDQGNRPVCQCLPGFGGPECE; listed as Homo sapiens)
25 µg/mL: MIC against M. catarrhalis (Moraxella catarrhalis; Moraxella catarrhalis, 96-well plate, 37° C., 10 h) | MIC against P. vulgaris (Proteus vulgaris; Proteus vulgaris, 96-well plate, 37° C., 10 h)
12.5 µg/mL: MIC against S. marcescens (Serratia marcescens; Serratia marcescens, 96-well plate, 37° C., 10 h) | MIC against C. diversus (Citrobacter diversus; Citrobacter diversus, 96-well plate, 37° C., 10 h) | MIC (E. coli DH5α) | MIC against E. cloacae (Enterobacter cloacae; Enterobacter cloacae, 96-well plate, 37° C., 10 h) | MIC against P. aeruginosa (Pseudomonas aeruginosa; Pseudomonas aeruginosa, 96-well plate, 37° C., 10 h)
50 µg/mL: MIC against A. hydrophila (Aeromonas hydrophila; Aeromonas hydrophila, 96-well plate, 37° C., 10 h) | MIC against P. mirabilis (Proteus mirabilis; Proteus mirabilis, 96-well plate, 37° C., 10 h) | MIC against K. pneumonia (Klebsiella pneumonia; Klebsiella pneumonia, 96-well plate, 37° C., 10 h) | MIC against E. coli BL21 (E. coli BL21; E. coli BL21, 96-well plate, 37° C., 10 h)
